The values that follow come from US20070077283A1, “METHOD OF ENHANCING TRANSMUCOSAL DELIVERY OF THERAPEUTIC COMPOUNDS” (Nastech Pharmaceutical Company Inc., priority 2005, published 2007).

Data set [1] deals with ciliary function in epithelial cell cultures. Particulars: Hingley et al. 1986; cited from earlier work.
Data set [2] has as its system human-derived tracheal/bronchial epithelial cells (EpiAirway Tissue Model). Kind of data set: Cell viability (MTT assay). The class given is cell-based. As to the method:
Cell viability will be assessed using the MTT assay (MTT-100, MatTek kit). This kit measures the uptake and transformation of tetrazolium salt to formazan dye. Thawed and diluted MTT concentrate is prepared 1 hour prior to the end of the dosing period with the lipid by mixing 2 mL of MTT concentrate with 8 mL of MTT diluent. Each cell culture insert is washed twice with PBS containing Ca^+2 and Mg^+2 and then transferred to a new 96-well transport plate containing 100 μL of the mixed MTT solution per well. This 96-well transport plate is then incubated for three hours at 37° C. and 5% CO2. After the three hour incubation, the MTT solution is removed and the cultures are transferred to a second 96-well feeder tray containing 250 μL MTT extractant solution per well. An additional 150 μL of MTT extractan solution was added to the surface of each culture well and the samples sat at room temperature in the dark for a minimum of two hours and maximum of 24 hours. The insert membrane was then pierced with a pipet tip and the solutions in the upper and lower wells were allowed to mix. Two hundred microliters of the mixed extracted solution along with extracted blanks (negative control) was transferred to a 96-well plate for measurement with a microplate reader. The optical density (OD) of the samples was measured at 570 nm with the background subtraction at 650 nm on a plate reader. Cell viability was expressed as a percentage and calculated by dividing the OD readings for treated inserts by the OD readings for the PBS treated inserts and multiplying by 100. For the purposes of this assay, it was assumed that PBS had no effect on cell viability and therefore represented 100% cell viability.
For orientation: Tetrazolium assays rely on reduction of a dye to a coloured formazan, in cell work by metabolically active cells.

The test system is the same in data set [3]. Kind of data set: Peptide YY (PYY) permeation across epithelial cell monolayer. The data set is classed as cell-based. To be noted: lipid 500 μM / PYY 13.67 mg/mL (High). As for the experimental part:
Permeation is expressed as percent permeation and was calculated as follows: [formula] [formula] Terms
In the instant example, the ability of permeation enhancing lipids to enhance the permeation of the biological agent, peptide YY (PYY; molecular weight of 3.7 kDa) across the epithelial cell monolayer model system (EpiAirway™) was measured. Also, the efficacy of a permeation enhancing lipid to enhance the permeation of insulin across and epithelial cell layer was measured. Refer to Example 2 of the instant application for general protocol details.

Data set [4] shares this test system. The data set can be described thus: FITC-Dextran permeation assay across epithelial cell monolayer. The data set is classed as cell-based. To be noted: lipid 500 μM (Table 5). Put shortly: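 Formulations applied apically to EpiAirway tissue inserts, shaken ~100 rpm 1.5 hours at 37 °C, with FITC-dextran (3-500 kDa) added apically. Basolateral fluorescence read at 470 nm in triplicate; result expressed as percent of FITC-dextran crossing apical to basolateral.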

For data set [5] the test system is unchanged. Kind of data set: TER recovery / TER time course. The class given is cell-based. Particulars: lipids 500 μM, PN159 25 μM. As for the experimental part:
TER recovery was calculated as described in the above paragraph.
Reversibility is a critical factor in selecting epithelial cell permeabiling enhancers since the barrier function of the epithelial cells serves as the first line of defense against pathogens and the entrance of toxins into the body. The permeation enhancing lipids C16 PAF; C18 PAF; C16 Enantiomeric PAF; POVPC; C16-04: 1 PC and PGPC were incubated with a monolayer of human-derived tracheal/bronchial epithelial cells (EpiAirway™ Model System) and TER […] The lipid glucosyl sphingosine was also tested. Each permeation enhancing lipid (except PGPC) was applied at a concentration of 1000 μM for 15, 30 and 60 minutes. The permeation enhancing lipid PGPC and the lipid glucosyl sphingosine were applied at a concentration of 500 μM for 1, 3, 5, 30 and 60 minutes. TER measurements were taken immediately after each application to determine how quickly each lipid could reduce TER.
[…] […] PBS served as a negative control and Triton-X100™ served as a positive control.
To asses how quickly the cells recovered after application and removal of the permeation enhancing lipid PGPC and the lipid glucosyl sphingosine, TER measurements were taken at 1, 3, 5, 7, and 9 hours post-treamtnet for each of the prior mentioned timed treatments (i.e., 1, 3, 5, 15, 30 and 60 minutes). TER recovery measures the reversibility of the lipid mediated effect on an epithelia. […] Hyptonic PBS served as a negative control for TER reduction and TER recovery.

Data set [6] shares this test system. Kind of data set: Transepithelial electrical resistance (TER) of an epithelial cell monolayer. The class given is cell-based. Particulars: lipid 500 μM / PYY 13.67 mg/mL (High). The gist of the method: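 EpiAirway human tracheal/bronchial epithelial tissue inserts, fed daily during recovery; resistance read with EVOM voltohmmeter in Endohm-12 chamber in MatTek medium, blank-insert background (about 5-20 ohms) measured. TER normalised to tissue surface area, expressed as Ohms*cm2 and percent of original TER; lower TER taken as enhanced permeation.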

For “2-alkyl-4-hydroxyquinolines [pyo compound]”, in data set [1], the “concentration producing ciliostasis / inhibiting ciliary motility” value is 50 µg/mL.
In the case of `CCCCCCCCCCCCC/C=C/[C@@H](O)[C@@H](N)CO[C@@H]1O[C@H](CO)[C@@H](O)[C@H](O)[C@H]1O` [Glucosyl-sphingosine, D-Glucosyl-β1-1′-D-erythro-Sphingosine], in data set [2] (compared with PBS negative control (Example 5)), the “MTT levels (cell viability)” value is listed as “MTT levels comparable to that of the PBS negative control”. Further, the “% Cell Viability” value in data set [2] (lipid 500 μM / PYY 13.67 mg/mL (High)) was determined as 109%. In addition, the “% PYY Permeation” value in data set [3] is recorded as 1.17%. Also, the “% FITC-Dextran Permeation FD3” value in data set [4] came out at 4%. For the same compound, the “time to full TER recovery (PBS control levels)” value in data set [5] (after 1, 3, 5, 15 and 30 minute treatments) is “fully recovered within one hour”; in data set [5] (after 60 minute treatment) it was “did not reach PBS TER control levels until three hours post-treatment”. The “% Original TER” value in data set [6] (listed as Glucosyl Sphingosine) is 12%; in data set [6] (listed as glucosyl sphingosine) it was “reduced TER to levels equivalent of PN159”.
For the compound rhamnolipid, in data set [1], the “effect of limited exposure of tracheal explants” value is given as “ciliostasis”.
